{"source": "patent US20250019708A1", "about": "“METHODS FOR THE TREATMENT OF HRD CANCER AND BRCA-ASSOCIATED CANCER” (INSTITUT CURIE, priority 2021, published 2025)", "key": {"[1]": {"tested_on": "NMNAT1−/− RPE-1 cells", "experiment": "Survival assay with PARP inhibitor", "format": "cell-based", "details": "versus WT RPE-1; FIG. 1g", "text": "FIG. 1: a, Quantification (left) and representative images (right) of clonogenic formation of wild type (WT) and BRCA2^−/− (clones C1 and C2) RPE-1 cells with and without BRCA2 cDNA complementation, after transfection with the indicated NMNAT1 siRNAs. b, Clonogenic formation (left) and WB-analysis (right) of BRCA2 mAID HeLa cells in the presence or absence of auxin (IAA) after transduction with viral particles carrying NMNAT1 shRNA or control. c, Clonogenic formation of WT and BRCA1^−/− RPE-1 cells after transfection with siNMNAT1 #2. d, Clonogenic formation of WT and NMNAT1^−/− RPE-1 cells after transfection with the indicated BRCA1/2 siRNAs. e, Quantification (left) and representative images (right) of clonogenic formation of the indicated HR-proficient and HR-deficient cells upon siNMNAT1. f, DNA damage quantification by alkaline COMET assay of P53−/− RPE-1 cells in the presence or absence of NMNAT1. g, Survival assay of WT and NMNAT1^−/− RPE-1 cells exposed to the indicated doses of the PARP inhibitor rucaparib (PARPi).\nAccumulation of DNA lesions can result in increased sensitivity to genotoxic drugs. Given that NMNAT1 functions upstream of PARP1 by providing NAD^+, the reduced PARP1 activity upon NMNAT1 loss might account for the observed synthetic lethality between NMNAT1 and BRCA."}, "[2]": {"tested_on": "PARPi-resistant OVCAR8 xenografts", "experiment": "PARPi-resistant xenograft tumor growth and survival", "format": "in vivo, athymic nude mice", "details": "versus vehicle; FIG. 6A", "text": "FIG. 6: NMNAT1 inhibition kills PARPi-resistant HRD tumors in vivo. A. Growth (relative tumor volume, RTV) of parental and PARPi-resistant OVCAR8 xenografts in vivo upon PARPi (rucaparib) or vehicle treatment. B, Growth (relative tumor volume, RTV) of PARPi-resistant OVCAR8 xenografts in vivo. C, Relative tumour volumes (RTV) for individual mice treated in B after five weeks of treatment. D, Overall survival for mice bearing PARPi-resistant OVCAR8 xenografts treated with vehicle or doxycycline. For data shown in FIG. 6, the PARPi-resistant OVCAR8 cells were xenotransplanted subcutaneously in athymic nude mice. Doxycycline was supplemented in the food (625 p.p.m.).\nTo translate these findings into a translational setting, the inventors derived a PARPi-resistant clone from the PARPi-naive BRCA1-deficient OVCAR8 lines, expressed either doxycycline-inducible NMNAT1 or scrambled (Scr) shRNA in these cells, and xenograft them in athymic nude mice.\nAs expected the OVCAR8 PARPi-resistant cells were resistant to the PARPi rucaparib in vivo (FIG. 6A)."}}}
{"smiles": "CNCc1ccc(-c2[nH]c3cc(F)cc4c3c2CCNC4=O)cc1", "note": "[rucaparib]", "values": [{"measurement": "sensitivity to PARP inhibitor (survival)", "setting": "[1]", "value": "sensitized"}, {"measurement": "response of tumor to PARPi in vivo", "setting": "[2]", "value": "resistant"}]}
